Among the data in PubChem BioAssay (NCI) are GI50 and TGI values, retold here.

Among the test systems are SK-MEL-2 melanoma; SNB-75 CNS; 786-0 renal; A498 renal; NCI/ADR-RES ovarian; OVCAR-5 ovarian; CCRF-CEM leukemia; OVCAR-3 ovarian; NCI-H460 lung; SK-MEL-5 melanoma.
What all share (test): NCI anticancer screen, dose series, 48 h

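Where inhibition never reached the appropriate level, the endpoint shown equals the highest concentration tested. Otherwise, values were interpolated linearly from a five-concentration, 48-hour dose response in 96-well plates. GI50: concentration for 50% inhibition of growth. TGI: concentration producing complete growth inhibition.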 Where only a bound is given, the exact number is not on record here.

With `S=C(Nc1ccc(Br)cc1)Nc1ccc(Br)cc1`, the GI50 in the test with SK-MEL-2 melanoma was 7.93 µM; in the test with SNB-75 CNS it was 98.7 µM; in the test with 786-0 renal, 38.5 µM; with A498 renal it was 5.38 µM; with NCI/ADR-RES ovarian it was 4.32 µM; with OVCAR-5 ovarian, greater than 100 µM. Moreover, the GI50 in the test with CCRF-CEM leukemia is 6.19 µM; in the test with OVCAR-3 ovarian it was 3.58 µM; in the test with NCI-H460 lung it was 3.69 µM; in the test on SK-MEL-5 melanoma it was 5.4 µM. Also, the TGI with SK-MEL-2 melanoma, in the test with SNB-75 CNS, in the test with 786-0 renal, in the test with A498 renal, in the test with NCI/ADR-RES ovarian and with OVCAR-5 ovarian was greater than 100 µM in each case. For the same molecule, the TGI in the test with CCRF-CEM leukemia, in the test on OVCAR-3 ovarian, in the test on NCI-H460 lung and in the test on SK-MEL-5 melanoma was greater than 100 µM throughout.

With `Cn1cc(C2=C(c3cn(CCCCN)c4ccccc34)C(=O)NC2=O)c2ccccc21`, the GI50 in the test on SK-MEL-2 melanoma, with SNB-75 CNS, in the test with 786-0 renal, in the test with A498 renal, in the test with NCI/ADR-RES ovarian and in the test with OVCAR-5 ovarian was greater than 25 µM throughout. In addition, the GI50 in the test on CCRF-CEM leukemia, in the test on OVCAR-3 ovarian, with NCI-H460 lung and in the test with SK-MEL-5 melanoma was greater than 25 µM in each case. The TGI with SK-MEL-2 melanoma, in the test on SNB-75 CNS, with 786-0 renal, in the test with A498 renal, in the test with NCI/ADR-RES ovarian and in the test on OVCAR-5 ovarian was greater than 25 µM each time. The TGI in the test with CCRF-CEM leukemia, in the test on OVCAR-3 ovarian, in the test on NCI-H460 lung and with SK-MEL-5 melanoma was greater than 25 µM in each case.

Turning to `Oc1[nH]c2ccccc2c1N=Nc1ccccn1`, the TGI in the test with SK-MEL-2 melanoma is greater than 100 µM; in the test with SNB-75 CNS, 86.6 µM; in the test on 786-0 renal it was 29.6 µM; with A498 renal, 70.6 µM; in the test on NCI/ADR-RES ovarian it was 28 µM; in the test with OVCAR-5 ovarian, greater than 100 µM. Besides, the TGI with CCRF-CEM leukemia was 58.8 µM; in the test on OVCAR-3 ovarian, greater than 100 µM; in the test on NCI-H460 lung it was 35.6 µM; in the test on SK-MEL-5 melanoma, greater than 100 µM.

Turning to `COC(=O)CCc1c[nH]c2ccc(N(CCCl)CCCl)cc12`, the GI50 in the test with SK-MEL-2 melanoma was 9.71 µM; in the test with SNB-75 CNS, 1.04 µM; in the test on 786-0 renal, 0.856 µM; with A498 renal, 3.4 µM; in the test on NCI/ADR-RES ovarian it was 2.3 µM; in the test on OVCAR-5 ovarian, 5.32 µM. For the same molecule, the GI50 is 0.6 µM in the test with CCRF-CEM leukemia, 8.05 µM in the test on OVCAR-3 ovarian, 0.322 µM in the test with NCI-H460 lung and 2.39 µM in the test on SK-MEL-5 melanoma. Besides, the TGI in the test with SK-MEL-2 melanoma is 59 µM; in the test on SNB-75 CNS, 11.6 µM; in the test with 786-0 renal, greater than 20.7 µM; in the test on A498 renal, 18.2 µM; in the test with NCI/ADR-RES ovarian it was greater than 56.8 µM; in the test with OVCAR-5 ovarian it was 46.1 µM. Besides, the TGI was greater than 28.6 µM in the test on CCRF-CEM leukemia, 49.6 µM in the test with OVCAR-3 ovarian, 12.9 µM with NCI-H460 lung and 14.8 µM in the test on SK-MEL-5 melanoma.

Consider `C=C1C(=O)O[C@H]2C[C@@H]1CC/C(C)=C/CC/C(C)=C/CC[C@H]2C`, for which the GI50 with SK-MEL-2 melanoma is 30.9 µM; in the test with SNB-75 CNS, 19.4 µM; in the test on 786-0 renal, 14.3 µM; with A498 renal, 20.6 µM; with NCI/ADR-RES ovarian it was 7.43 µM; in the test with OVCAR-5 ovarian, 17.2 µM. The GI50 was 18.8 µM in the test on CCRF-CEM leukemia, 3.94 µM with OVCAR-3 ovarian, 23.2 µM in the test on NCI-H460 lung and 17.3 µM with SK-MEL-5 melanoma. For the same molecule, the TGI is greater than 61.9 µM in the test with SK-MEL-2 melanoma; 35.2 µM in the test on SNB-75 CNS; 28.2 µM with 786-0 renal; 36.6 µM in the test on A498 renal; 21.5 µM with NCI/ADR-RES ovarian; 34.6 µM with OVCAR-5 ovarian. In addition, the TGI in the test on CCRF-CEM leukemia was 48.5 µM; in the test with OVCAR-3 ovarian it was 19 µM; in the test with NCI-H460 lung, greater than 59 µM; with SK-MEL-5 melanoma, 32.2 µM.

`CCN(Cc1cccc(F)c1)c1ccc(CO)c(Cl)c1`: the GI50 in the test with SK-MEL-2 melanoma was 4.54 µM; with SNB-75 CNS it was 12 µM; in the test with 786-0 renal, 10.5 µM; in the test with A498 renal, 0.0356 µM; in the test with NCI/ADR-RES ovarian, 15.9 µM; in the test on OVCAR-5 ovarian it was 0.148 µM. Besides, the GI50 with CCRF-CEM leukemia was 24 µM; in the test on OVCAR-3 ovarian, 0.711 µM; with NCI-H460 lung, 0.306 µM; in the test on SK-MEL-5 melanoma it was 3.86 µM. Besides, the TGI is 25.1 µM in the test with SK-MEL-2 melanoma; 54 µM in the test on SNB-75 CNS; 30.3 µM in the test on 786-0 renal; 0.169 µM in the test with A498 renal; 53.6 µM in the test on NCI/ADR-RES ovarian; 0.605 µM in the test with OVCAR-5 ovarian. Moreover, the TGI was greater than 80.7 µM with CCRF-CEM leukemia, 6.71 µM with OVCAR-3 ovarian, 18 µM in the test on NCI-H460 lung and 20.4 µM in the test with SK-MEL-5 melanoma.

Take `CCOc1ccc2nc(SCc3nc4n(n3)S(=O)(=O)c3ccccc3N4C)sc2c1`: the GI50 was greater than 100 µM with SK-MEL-2 melanoma; 28.8 µM with SNB-75 CNS; greater than 100 µM in the test on 786-0 renal; greater than 100 µM in the test on A498 renal; greater than 100 µM in the test on NCI/ADR-RES ovarian; greater than 100 µM in the test on OVCAR-5 ovarian. The GI50 in the test on CCRF-CEM leukemia is 64.2 µM; in the test on OVCAR-3 ovarian, greater than 100 µM; in the test on NCI-H460 lung it was greater than 100 µM; in the test on SK-MEL-5 melanoma it was greater than 100 µM. In addition, the TGI with SK-MEL-2 melanoma is greater than 100 µM; in the test with SNB-75 CNS, 83.8 µM; with 786-0 renal, greater than 100 µM; with A498 renal, greater than 100 µM; in the test with NCI/ADR-RES ovarian, greater than 100 µM; in the test with OVCAR-5 ovarian, greater than 100 µM. For the same molecule, the TGI in the test with CCRF-CEM leukemia, with OVCAR-3 ovarian, with NCI-H460 lung and in the test with SK-MEL-5 melanoma was greater than 100 µM in each case.

With `O=C(CP(=O)(O)O)NC(CC(=O)OCc1ccccc1)C(=O)OCc1ccccc1` (stereo not given), the TGI in the test with SK-MEL-2 melanoma, with SNB-75 CNS, in the test on 786-0 renal, in the test on A498 renal, in the test on NCI/ADR-RES ovarian and in the test on OVCAR-5 ovarian was greater than 100 µM throughout. The TGI in the test on CCRF-CEM leukemia, in the test with OVCAR-3 ovarian, in the test on NCI-H460 lung and in the test on SK-MEL-5 melanoma was greater than 100 µM in each case.
